# Data published in patent publication US20100056519A1, “COMPOSITION AND METHOD FOR REDUCING PLATELET ACTIVATION AND FOR THE TREATMENT OF THROMBOTIC EVENTS” (priority 2008, published 2010).
# How the values were obtained:
# Assay type in all cases: cell-based, human
# [1] = tested on: VTNR (CD51/61); experiment: Unstimulated whole blood flow cytometry, vitronectin receptor; conditions: for VTNR (CD51/61), Mean Fluorescence Intensity: unstimulated, Mean ± SD
# Method: (§1) The methodology employed was conventional aggregation induced by 5 μM ADP, 1 μg/ml collagen, 10 μM TRAP, whole blood aggregation with 1 μg/ml collagen, Ultegra, and PFA-100 Analyzers, expression of 14 intact, and TRAP-stimulated major receptors by whole blood flow cytometry were utilized to assess platelet activity after preincubation with escalating concentrations of E5555 (20 ng/ml, 50 ng/ml, and 100 ng/ml). The experiments were performed in healthy volunteers, CAD patients treated with ASA, and CAD patients treated with ASA and clopidogrel combination (n=10, for each group).
# (§2) An Informed Consent was obtained from all volunteers. Drug users were excluded from data analysis. The study was approved by Quorum Institutional Review Board. All subjects underwent blood sampling after at least 30 minutes of rest and two or more hours of fasting. Blood (28 ml) was drawn between 8 and 10 a.m. in order to avoid any diurnal influence and sampled from an antecubital vein using a 21-gauge butterfly needle containing 3.2% sodium citrate (1:9 volume) after having discarded the first 1.5 ml of free running blood. Four Vacutainer tubes (7.0 ml) were collected for a total of 28 ml of whole blood-citrate mixture from each study participant. Chronologically, blood samples were delivered to the core laboratory facility within 45 minutes after drawing. Then all tubes of blood-citrate mixture were pooled. One portion of pooled blood (5 ml) was kept as an internal control and pretreated with the vehicle. The remaining blood (23 ml) was used for the in vitro exposure to E5555 at concentrations of 20 ng/ml, 50 ng/ml, and 100 ng/ml. […] The platelet aggregation studies, Rapid Analyzers measures, and flow cytometry preparations were initiated within no more than 110 minutes following the blood draw, incubation with the drug, and preparation of the samples.
# (§3) Formation of platelet-leukocyte aggregates was assessed by dual labeling with pan-platelet marker (CD151), and then with CD14, the macrophage receptor for endotoxin lipopolysaccharides (PharMingen, and Coulter, San Diego, Calif., USA). The tubes were then covered with aluminum foil and incubated at 37° C. for 40 minutes with gentle rotation. After incubation, samples were immediately analyzed on a Becton Dickinson FACScan flow cytometer. The instrument was set up to measure forward light scatter, and FITC fluorescence. All parameters were collected using four-decade logarithmic amplification. The data was retrieved in list mode files and then analyzed. P selectin was expressed as percent positive cells. Other antigens were expressed as log mean fluorescence intensity.
# [2] = tested on: WEDE15; experiment: Unstimulated whole blood flow cytometry, WEDE15; conditions: Mean ± SD
# Method: as §1, §2, §3
# [3] = tested on: PMA (CD14 + CD151); experiment: TRAP-stimulated whole blood flow cytometry, platelet-monocyte aggregates; conditions: Mean ± SD
# Method: as §1, §2, §3
# For flow cytometry (TRAP-stimulated) all of the above flow cytometry experiments were identically repeated utilizing prestimulation with 10 μmol/L TRAP for 5 minutes at 37° C. To determine statistics, a Paired Sign Test was used to define significance of differences between vehicle and E5555-treated groups. The Mann-Whitney U test was used to analyze nonparametric data. Normally distributed data were expressed as mean±standard error (m±SE), and skewed data as median (range). All P-values were two sided. All analysis was performed using the SPSS v9.0 program (SPSS Inc., Chicago, Ill.).
# [4] = tested on: GP37 (CD165); experiment: Unstimulated whole blood flow cytometry, GP37; conditions: Mean ± SD
# Method: as §1, §2, §3
# [5] = tested on: CD-40L (CD154); experiment: Unstimulated whole blood flow cytometry, CD40-ligand; conditions: for CD-40L (CD154), Mean Fluorescence Intensity: unstimulated, Mean ± SD
# Method: as §1, §2, §3
# [6] = overall summary, stimulation not stated
# [7] = E5555 20 ng/ml, Patients (ASA + C)
# [8] = E5555 50 ng/ml, Patients (ASA + C)
# [9] = E5555 100 ng/ml, Patients (ASA + C)
# [10] = E5555 100 ng/ml, Patients (ASA)
compound,measurement,setting,value
"Br.CCOc1cc2c(c(F)c1OCC)C(=N)N(CC(=O)c1cc(N3CCOCC3)c(OC)c(C(C)(C)C)c1)C2 [E5555, 1-(3-tert-butyl-4-methoxy-5-morpholinophenyl)-2-(5,6-diethoxy-7-fluoro-1-imino-1,3-dihydro-2H-isoindol-2-yl)ethanone hydrobromide]","vitronectin receptor expression, effect in words",[1]; [6],significant reduction
same,"VTNR (CD51/61), Mean Fluorescence Intensity",[1]; [7],7.9 ± 1.8 MFI
same,"VTNR (CD51/61), Mean Fluorescence Intensity","[1]; E5555 20 ng/ml, Patients (ASA)",8.4 ± 1.5 MFI
same,"VTNR (CD51/61), Mean Fluorescence Intensity","[1]; E5555 20 ng/ml, Volunteers",8.7 ± 0.6 MFI
same,"VTNR (CD51/61), Mean Fluorescence Intensity",[1]; [8],8.2 ± 1.6 MFI
same,"VTNR (CD51/61), Mean Fluorescence Intensity","[1]; E5555 50 ng/ml, Patients (ASA)",8.6 ± 2.1 MFI
same,"VTNR (CD51/61), Mean Fluorescence Intensity","[1]; E5555 50 ng/ml, Volunteers",9.1 ± 1.0 MFI
same,"VTNR (CD51/61), Mean Fluorescence Intensity",[1]; [9],9.0 ± 2.4 MFI
same,"VTNR (CD51/61), Mean Fluorescence Intensity",[1]; [10],8.3 ± 14 MFI
same,"VTNR (CD51/61), Mean Fluorescence Intensity","[1]; E5555 100 ng/ml, Volunteers",9.6 ± 1.1 MFI
same,"WEDE15, Mean Fluorescence Intensity",[2]; [7],30 ± 8 MFI
same,"WEDE15, Mean Fluorescence Intensity","[2]; E5555 20 ng/ml, Patients (ASA)",40 ± 11 MFI
same,"WEDE15, Mean Fluorescence Intensity","[2]; E5555 20 ng/ml, Volunteers",40 ± 9 MFI
same,"WEDE15, Mean Fluorescence Intensity",[2]; [8],27 ± 6 MFI
same,"WEDE15, Mean Fluorescence Intensity","[2]; E5555 50 ng/ml, Patients (ASA)",38 ± 8 MFI
same,"WEDE15, Mean Fluorescence Intensity","[2]; E5555 50 ng/ml, Volunteers",41 ± 6 MFI
same,"WEDE15, Mean Fluorescence Intensity",[2]; [9],29 ± 12 MFI
same,"WEDE15, Mean Fluorescence Intensity",[2]; [10],35 ± 5 MFI
same,"WEDE15, Mean Fluorescence Intensity","[2]; E5555 100 ng/ml, Volunteers",40 ± 10 MFI
same,"PMA (CD14 + CD151), Mean Fluorescence Intensity",[3]; [7],100 ± 21 MFI
same,"PMA (CD14 + CD151), Mean Fluorescence Intensity","[3]; E5555 20 ng/ml, Patients (ASA)",109 ± 23 MFI
same,"PMA (CD14 + CD151), Mean Fluorescence Intensity","[3]; E5555 20 ng/ml, Volunteers",133 ± 19 MFI
same,"PMA (CD14 + CD151), Mean Fluorescence Intensity",[3]; [8],77 ± 23 MFI
same,"PMA (CD14 + CD151), Mean Fluorescence Intensity","[3]; E5555 50 ng/ml, Patients (ASA)",82 ± 10 MFI
same,"PMA (CD14 + CD151), Mean Fluorescence Intensity","[3]; E5555 50 ng/ml, Volunteers",118 ± 14 MFI
same,"PMA (CD14 + CD151), Mean Fluorescence Intensity",[3]; [9],108 ± 19 MFI
same,"PMA (CD14 + CD151), Mean Fluorescence Intensity",[3]; [10],116 ± 23 MFI
same,"PMA (CD14 + CD151), Mean Fluorescence Intensity","[3]; E5555 100 ng/ml, Volunteers",125 ± 20 MFI
same,"GP37 (CD165), Mean Fluorescence Intensity",[4]; [7],25 ± 11 MFI
same,"GP37 (CD165), Mean Fluorescence Intensity","[4]; E5555 20 ng/ml, Patients (ASA)",30 ± 7 MFI
same,"GP37 (CD165), Mean Fluorescence Intensity","[4]; E5555 20 ng/ml, Volunteers",27 ± 8 MFI
same,"GP37 (CD165), Mean Fluorescence Intensity",[4]; [8],28 ± 10 MFI
same,"GP37 (CD165), Mean Fluorescence Intensity","[4]; E5555 50 ng/ml, Patients (ASA)",27 ± 12 MFI
same,"GP37 (CD165), Mean Fluorescence Intensity","[4]; E5555 50 ng/ml, Volunteers",28 ± 7 MFI
same,"GP37 (CD165), Mean Fluorescence Intensity",[4]; [9],25 ± 12 MFI
same,"GP37 (CD165), Mean Fluorescence Intensity",[4]; [10],28 ± 11 MFI
same,"GP37 (CD165), Mean Fluorescence Intensity","[4]; E5555 100 ng/ml, Volunteers",26 ± 6 MFI
same,"CD40-ligand, effect in words",[5]; [6],not affected
same,"CD-40L (CD154), Mean Fluorescence Intensity",[5]; [7],5.1 ± 1.0 MFI
same,"CD-40L (CD154), Mean Fluorescence Intensity","[5]; E5555 20 ng/ml, Patients (ASA)",5.0 ± 1.0 MFI
same,"CD-40L (CD154), Mean Fluorescence Intensity","[5]; E5555 20 ng/ml, Volunteers",5.4 ± 0.8 MFI
same,"CD-40L (CD154), Mean Fluorescence Intensity",[5]; [8],5.2 ± 0.7 MFI
same,"CD-40L (CD154), Mean Fluorescence Intensity","[5]; E5555 50 ng/ml, Patients (ASA)",5.2 ± 0.8 MFI
